# In PubChem BioAssay AID328 (DTP/NCI, 2004):
# Several values for one entry are separate records, joined by “and”; a condition that tells them apart may be missing. Identical values can stand only once. Toxic doses and inconclusive results are not listed.
# Test system: BDF1 mice, P388 leukemia ip, median survival T/C
# Experiment: NCI In Vivo Anticancer Drug Screen. Data for tumor model P388 Leukemia (intraperitoneal) in B6D2F1 (BDF1) mice
# Conditions: endpoint: median survival time, higher = longer survival
# How it was run: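 Vehicle-dosed animals serve as the reference; survival of compound-dosed, tumour-implanted mice is divided by it.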
# [1] = dose: 50.0 mg/kg/injection, schedule: Q01DX009 (ip), vehicle: saline with Tween-80
# [2] = dose: 100.0 mg/kg/injection, schedule: Q01DX009 (ip), vehicle: saline with Tween-80
# [3] = dose: 200.0 mg/kg/injection, schedule: Q01DX009 (ip), vehicle: saline with Tween-80
# [4] = dose: 400.0 mg/kg/injection, schedule: Q01DX009 (ip), vehicle: saline with Tween-80
# [5] = dose: 50.0 mg/kg/injection, schedule: Q04DX003 (ip), vehicle: saline with Tween-80
# [6] = dose: 100.0 mg/kg/injection, schedule: Q04DX003 (ip), vehicle: saline with Tween-80
# [7] = dose: 200.0 mg/kg/injection, schedule: Q04DX003 (ip), vehicle: saline with Tween-80
# [8] = dose: 12.5 mg/kg/injection, schedule: Q04DX003 (ip), vehicle: saline with Tween-80
# [9] = dose: 25.0 mg/kg/injection, schedule: Q01DX009 (ip), vehicle: saline with Tween-80
# [10] = dose: 25.0 mg/kg/injection, schedule: Q04DX003 (ip), vehicle: saline with Tween-80
# [11] = dose: 12.5 mg/kg/injection, schedule: Q01DX009 (ip), vehicle: saline
# [12] = dose: 25.0 mg/kg/injection, schedule: Q01DX009 (ip), vehicle: saline
# [13] = dose: 12.5 mg/kg/injection, schedule: Q01DX009 (ip), vehicle: Klucel (hydroxypropylcellulose) (HPC)
# [14] = dose: 25.0 mg/kg/injection, schedule: Q01DX009 (ip), vehicle: Klucel (hydroxypropylcellulose) (HPC)
# [15] = dose: 50.0 mg/kg/injection, schedule: Q01DX009 (ip), vehicle: saline
# [16] = dose: 100.0 mg/kg/injection, schedule: Q01DX009 (ip), vehicle: Klucel (hydroxypropylcellulose) (HPC)
# [17] = dose: 100.0 mg/kg/injection, schedule: Q01DX009 (ip), vehicle: saline
# [18] = dose: 400.0 mg/kg/injection, schedule: Q04DX003 (ip), vehicle: saline with Tween-80
# [19] = dose: 50.0 mg/kg/injection, schedule: Q04DX003 (ip), vehicle: Klucel (hydroxypropylcellulose) (HPC)
# [20] = dose: 100.0 mg/kg/injection, schedule: Q04DX003 (ip), vehicle: Klucel (hydroxypropylcellulose) (HPC)
# [21] = dose: 200.0 mg/kg/injection, schedule: Q04DX003 (ip), vehicle: Klucel (hydroxypropylcellulose) (HPC)
# [22] = dose: 400.0 mg/kg/injection, schedule: Q04DX003 (ip), vehicle: Klucel (hydroxypropylcellulose) (HPC)
# [23] = dose: 50.0 mg/kg/injection, schedule: Q01DX009 (ip), vehicle: Klucel (hydroxypropylcellulose) (HPC)
smiles,measurement,setting,value
CC1CCC[N-]C1.CC1CCC[N-]C1.CC1CCC[N-]C1.CC1CCC[N-]C1.[Cl][Rh][Cl] (configuration not stated),T/C,"dose: 3.0 mg/kg/injection, schedule: Q01DX009 (ip), vehicle: Klucel (hydroxypropylcellulose) (HPC)",162 % of control
Sc1ccccc1-n1c(-c2ccccc2)ccc1-c1ccccc1,T/C,[1],101 % of control
same,T/C,[2],88 % of control
same,T/C,[3],87 % of control
same,T/C,[4],102 % of control
Cc1ccc(C)c(C(=O)C2CC2)c1,T/C,[5],100 % of control
same,T/C,[2],100 % of control
same,T/C,[6],120 % of control
same,T/C,"dose: 150.0 mg/kg/injection, schedule: Q01DX009 (ip), vehicle: saline with Tween-80",103 % of control
same,T/C,[3],110 % of control
same,T/C,[7],100 % of control
CC12COC(=O)CC1CCC1C2CCC2(C)C1CCC2(C)O (configuration not stated),T/C,[1],90 % of control
same,T/C,[2],95 % of control
same,T/C,[3],100 % of control
CSc1nc([N+](=O)[O-])c2cnccn12,T/C,"dose: 5.0 mg/kg/injection, schedule: Q04DX003 (ip), vehicle: saline with Tween-80",103 % of control
same,T/C,"dose: 6.25 mg/kg/injection, schedule: Q01DX009 (ip), vehicle: saline with Tween-80",97 % of control
same,T/C,"dose: 10.0 mg/kg/injection, schedule: Q04DX003 (ip), vehicle: saline with Tween-80",99 % of control
same,T/C,"dose: 12.5 mg/kg/injection, schedule: Q01DX009 (ip), vehicle: saline with Tween-80",99 % of control
same,T/C,[8],101 % of control
same,T/C,"dose: 20.0 mg/kg/injection, schedule: Q04DX003 (ip), vehicle: saline with Tween-80",90 % of control
same,T/C,[9],96 % of control
same,T/C,[10],92 % of control
same,T/C,"dose: 40.0 mg/kg/injection, schedule: Q04DX003 (ip), vehicle: saline with Tween-80",114 % of control
same,T/C,[5],89 % of control
C[N+](C)(C)CCCSC1=NCCN1,T/C,"dose: 6.25 mg/kg/injection, schedule: Q01DX009 (ip), vehicle: saline",106 % of control
same,T/C,[11],107 % of control
same,T/C,[12],103 % of control
CCOC(=O)CC(C)=O.[Cu+2],T/C,"dose: 6.25 mg/kg/injection, schedule: Q01DX009 (ip), vehicle: Klucel (hydroxypropylcellulose) (HPC)",100 % of control
same,T/C,[13],90 % of control
FC(F)(F)c1cc(CN(CCCl)CCCl)cc(C(F)(F)F)c1,T/C,[13],101 % of control
same,T/C,"dose: 12.5 mg/kg/injection, schedule: Q01DX009 (ip), vehicle: other",116 % of control
same,T/C,[11],100 % of control
same,T/C,[14],108 % of control and 120 % of control
same,T/C,[12],188 % of control
same,T/C,"dose: 50.0 mg/kg/injection, schedule: Q01DX009 (ip), vehicle: other",150 % of control
same,T/C,[15],172 % of control
same,T/C,[16],153 % of control and 165 % of control
same,T/C,[17],194 % of control
COc1ccc(Cc2cc3cc(OC)c(OC)cc3cn2)cc1OC,T/C,[6],110 % of control
same,T/C,[3],103 % of control
same,T/C,[7],112 % of control
same,T/C,"dose: 300.0 mg/kg/injection, schedule: Q01DX009 (ip), vehicle: saline with Tween-80",114 % of control
same,T/C,[4],103 % of control
same,T/C,[18],116 % of control
same,T/C,"dose: 500.0 mg/kg/injection, schedule: Q01DX009 (ip), vehicle: saline with Tween-80",103 % of control
CC1(C)CC(=O)N/C1=C\C1NC(=O)CC1(C)C (configuration not stated),T/C,[2],104 % of control
same,T/C,[3],109 % of control
C/C(=N/S(=O)(=O)c1ccc(C)cc1)OCCN(C)C,T/C,"dose: 1.5 mg/kg/injection, schedule: Q01DX009 (ip), vehicle: saline with Tween-80",104 % of control
same,T/C,"dose: 3.0 mg/kg/injection, schedule: Q01DX009 (ip), vehicle: saline with Tween-80",109 % of control
same,T/C,"dose: 3.0 mg/kg/injection, schedule: Q04DX003 (ip), vehicle: saline with Tween-80",100 % of control
same,T/C,"dose: 6.0 mg/kg/injection, schedule: Q01DX009 (ip), vehicle: saline with Tween-80",118 % of control
same,T/C,"dose: 6.0 mg/kg/injection, schedule: Q04DX003 (ip), vehicle: saline with Tween-80",100 % of control
O=C(Nc1cccc2ccccc12)N1c2ccccc2SC12CCCC2,T/C,[2],91 % of control
C[N+](C)(C)/N=C1\CCc2ccccc21,T/C,[5],95 % of control
same,T/C,[6],95 % of control
same,T/C,[7],95 % of control
CCOC(=O)Cn1ccc(=O)[nH]c1=O,T/C,"dose: 75.0 mg/kg/injection, schedule: Q04DX003 (ip), vehicle: saline",100 % of control
same,T/C,"dose: 150.0 mg/kg/injection, schedule: Q04DX003 (ip), vehicle: saline",100 % of control
same,T/C,"dose: 300.0 mg/kg/injection, schedule: Q04DX003 (ip), vehicle: saline",100 % of control
O=[N+]([O-])c1ccc(/C=C/c2ncc[nH]2)o1,T/C,[19],100 % of control
same,T/C,[20],100 % of control
same,T/C,[21],100 % of control
Cc1c(N)c2ccccc2c(=O)n1C,T/C,"dose: 50.0 mg/kg/injection, schedule: Q01DX005 (ip), vehicle: saline with Tween-80",92 % of control
same,T/C,"dose: 100.0 mg/kg/injection, schedule: Q01DX005 (ip), vehicle: saline with Tween-80",97 % of control
same,T/C,"dose: 200.0 mg/kg/injection, schedule: Q01DX005 (ip), vehicle: saline with Tween-80",106 % of control
OC12CCCC3CCCC(CCC1)C32 (configuration not stated),T/C,[20],100 % of control
same,T/C,[21],100 % of control
same,T/C,[22],100 % of control
CC(=O)N(N=Nc1ccccc1)c1cccc2ccccc12,T/C,[14],109 % of control and 113 % of control
same,T/C,"dose: 35.0 mg/kg/injection, schedule: Q01DX009 (ip), vehicle: Klucel (hydroxypropylcellulose) (HPC)",103 % of control
same,T/C,[23],107 % of control
same,T/C,[19],100 % of control
same,T/C,[20],110 % of control
O=C(OC[P+](c1ccccc1)(c1ccccc1)c1ccccc1)c1ccccc1,T/C,"dose: 3.13 mg/kg/injection, schedule: Q01DX009 (ip), vehicle: saline",112 % of control
same,T/C,[12],122 % of control
same,T/C,[15],91 % of control
O=C1CC2c3ccccc3C1C1C(=O)OC(=O)C21 (configuration not stated),T/C,[20],104 % of control
same,T/C,[21],90 % of control
OC(CCl)COCC#Cc1ccccc1 (configuration not stated),T/C,[10],105 % of control
same,T/C,[5],100 % of control
same,T/C,[2],95 % of control
same,T/C,[6],115 % of control
same,T/C,[3],112 % of control
same,T/C,[7],95 % of control
same,T/C,[4],116 % of control
same,T/C,[18],95 % of control
CC(C)=CCC/C(C)=C/COC(=O)Cc1ccccc1,T/C,[2],104 % of control
same,T/C,[6],100 % of control
same,T/C,[3],109 % of control
same,T/C,[7],105 % of control
same,T/C,[4],118 % of control
same,T/C,[18],122 % of control
COC(=O)/C(N=Nc1cccc(C)c1)=C(\C)O,T/C,[1],97 % of control
same,T/C,[2],103 % of control
CSCC(NC(=O)OCc1ccccc1)C(=O)O (configuration not stated),T/C,[5],95 % of control
same,T/C,[6],109 % of control
same,T/C,[7],100 % of control
COc1ccc(CC(=O)Cc2ccc(OC)c(OC)c2)cc1OC,T/C,[9],104 % of control
same,T/C,[1],113 % of control
same,T/C,[2],113 % of control and 123 % of control
same,T/C,[6],109 % of control
same,T/C,[3],95 % of control and 120 % of control
same,T/C,[7],104 % of control
same,T/C,[4],118 % of control
same,T/C,[18],90 % of control
N#Cc1cnccn1,T/C,[17],100 % of control
same,T/C,"dose: 200.0 mg/kg/injection, schedule: Q01DX009 (ip), vehicle: saline",100 % of control
same,T/C,"dose: 400.0 mg/kg/injection, schedule: Q01DX009 (ip), vehicle: saline",87 % of control
Nc1ccccc1SC1CC(=O)N(c2cccc3ccccc23)C1=O (configuration not stated),T/C,[16],118 % of control
same,T/C,[20],104 % of control
same,T/C,"dose: 200.0 mg/kg/injection, schedule: Q01DX009 (ip), vehicle: Klucel (hydroxypropylcellulose) (HPC)",118 % of control
same,T/C,[21],100 % of control
same,T/C,"dose: 400.0 mg/kg/injection, schedule: Q01DX009 (ip), vehicle: Klucel (hydroxypropylcellulose) (HPC)",100 % of control
same,T/C,[22],90 % of control
O=[N+]([O-])c1ccc([N+](=O)[O-])c(Cl)c1,T/C,[8],90 % of control
same,T/C,[14],100 % of control
same,T/C,[10],109 % of control
same,T/C,[23],109 % of control
same,T/C,[5],109 % of control
same,T/C,[16],118 % of control
same,T/C,[20],109 % of control
same,T/C,"dose: 150.0 mg/kg/injection, schedule: Q01DX009 (ip), vehicle: Klucel (hydroxypropylcellulose) (HPC)",118 % of control
